Values joined by “and” are separate entries in the source; they are usually repeats but may differ in a detail not shown here. Identical values can stand only once.
Test: Thermal stability by Thermogravimetric Analysis (TGA)
Format: physicochemical
Details: 100 (° C.)
Protocol: Briefly, the residual weight (%) of the compounds was measured at different temperatures, including 100° C. for water boiling, and other temperatures corresponding to extrusion processes, and the T onset (° C.) by intersection points of tangents was checked. The results are represented in Table 16 below, and in FIG. 6.

Row | SMILES | Residual weight % at different temperatures
1 | CCOC(=O)C1CSC2=C(CC(C)(C)C/C2=N\c2ccc(N3CCOCC3)cc2)N1 (stereo not drawn) [Formula 62] | 94.5 w %
2 | C#Cc1ccc(/N=C2\CC(C)(C)CC3=C2SCC(C(=O)OCC)N3)cc1 (stereo not drawn) [Formula 63] | 98.7 w %
3 | CCOC(=O)C1CSC2=C(CC(C)(C)C/C2=N\c2ccc(Nc3ccccc3)cc2)N1 (stereo not drawn) [Formula 64] | 97.2 w %
4 | CCOC(=O)C1CSC2=C(CC(C)(C)C/C2=N\c2ccc(Cn3cncn3)cc2)N1 (stereo not drawn) [Formula 65] | 95.3 w %
5 | COC(=O)C(Cc1ccccc1)NC1=C/C(=N/c2ccc(F)cc2)CC(C)(C)C1 (stereo not drawn) [Formula 67] | 99.4 w %
6 | COC(=O)C(Cc1ccccc1)NC1=C/C(=N/c2ccc(OC)cc2)CC(C)(C)C1 (stereo not drawn) [Formula 68] | 97.9 w %
7 | CCCCCCCCOc1ccc(/N=C2/C=C(NC(Cc3ccccc3)C(=O)OC)CC(C)(C)C2)cc1 (stereo not drawn) [Formula 69] | 99.3 w %
8 | C#Cc1ccc(NC2C=C(NCC(=O)OCC)CC(C)(C)C2)cc1 (stereo not drawn) [Formula 76] | 99.6 w % and 99.5 w %
9 | CCOC(=O)C1CSC2=C(CC(C)(C)CC2Nc2ccccc2)N1 (stereo not drawn) [Formula 77] | 99.2 w %

Same assay, conditions: 190 (° C.)

Row | SMILES | Residual weight % at different temperatures
10 | CCOC(=O)C1CSC2=C(CC(C)(C)C/C2=N\c2ccc(N3CCOCC3)cc2)N1 (stereo not drawn) [Formula 62] | 85.0 w %
11 | C#Cc1ccc(/N=C2\CC(C)(C)CC3=C2SCC(C(=O)OCC)N3)cc1 (stereo not drawn) [Formula 63] | 97.3 w %
12 | CCOC(=O)C1CSC2=C(CC(C)(C)C/C2=N\c2ccc(Nc3ccccc3)cc2)N1 (stereo not drawn) [Formula 64] | 87.7 w %
13 | CCOC(=O)C1CSC2=C(CC(C)(C)C/C2=N\c2ccc(Cn3cncn3)cc2)N1 (stereo not drawn) [Formula 65] | 91.7 w %
14 | COC(=O)C(Cc1ccccc1)NC1=C/C(=N/c2ccc(F)cc2)CC(C)(C)C1 (stereo not drawn) [Formula 67] | 92.9 w %
15 | COC(=O)C(Cc1ccccc1)NC1=C/C(=N/c2ccc(OC)cc2)CC(C)(C)C1 (stereo not drawn) [Formula 68] | 93.6 w %
16 | CCCCCCCCOc1ccc(/N=C2/C=C(NC(Cc3ccccc3)C(=O)OC)CC(C)(C)C2)cc1 (stereo not drawn) [Formula 69] | 95.2 w %
17 | C#Cc1ccc(NC2C=C(NCC(=O)OCC)CC(C)(C)C2)cc1 (stereo not drawn) [Formula 76] | 99.4 w % and 99.2 w %
18 | CCOC(=O)C1CSC2=C(CC(C)(C)CC2Nc2ccccc2)N1 (stereo not drawn) [Formula 77] | 91.2 w %

Same assay, conditions: 210 (° C.)

Row | SMILES | Residual weight % at different temperatures
19 | CCOC(=O)C1CSC2=C(CC(C)(C)C/C2=N\c2ccc(N3CCOCC3)cc2)N1 (stereo not drawn) [Formula 62] | 75.8 w %
20 | C#Cc1ccc(/N=C2\CC(C)(C)CC3=C2SCC(C(=O)OCC)N3)cc1 (stereo not drawn) [Formula 63] | 88.4 w %
21 | CCOC(=O)C1CSC2=C(CC(C)(C)C/C2=N\c2ccc(Nc3ccccc3)cc2)N1 (stereo not drawn) [Formula 64] | 80.3 w %
22 | CCOC(=O)C1CSC2=C(CC(C)(C)C/C2=N\c2ccc(Cn3cncn3)cc2)N1 (stereo not drawn) [Formula 65] | 89.3 w %
23 | COC(=O)C(Cc1ccccc1)NC1=C/C(=N/c2ccc(F)cc2)CC(C)(C)C1 (stereo not drawn) [Formula 67] | 82.0 w %
24 | COC(=O)C(Cc1ccccc1)NC1=C/C(=N/c2ccc(OC)cc2)CC(C)(C)C1 (stereo not drawn) [Formula 68] | 87.3 w %
25 | CCCCCCCCOc1ccc(/N=C2/C=C(NC(Cc3ccccc3)C(=O)OC)CC(C)(C)C2)cc1 (stereo not drawn) [Formula 69] | 88.0 w %
26 | C#Cc1ccc(NC2C=C(NCC(=O)OCC)CC(C)(C)C2)cc1 (stereo not drawn) [Formula 76] | 99.3 w % and 99.0 w %
27 | CCOC(=O)C1CSC2=C(CC(C)(C)CC2Nc2ccccc2)N1 (stereo not drawn) [Formula 77] | 83.8 w %

Same assay, conditions: 250 (° C.)

Row | SMILES | Residual weight % at different temperatures
28 | CCOC(=O)C1CSC2=C(CC(C)(C)C/C2=N\c2ccc(N3CCOCC3)cc2)N1 (stereo not drawn) [Formula 62] | 54.0 w %
29 | C#Cc1ccc(/N=C2\CC(C)(C)CC3=C2SCC(C(=O)OCC)N3)cc1 (stereo not drawn) [Formula 63] | 68.0 w %
30 | CCOC(=O)C1CSC2=C(CC(C)(C)C/C2=N\c2ccc(Nc3ccccc3)cc2)N1 (stereo not drawn) [Formula 64] | 60.9 w %
31 | CCOC(=O)C1CSC2=C(CC(C)(C)C/C2=N\c2ccc(Cn3cncn3)cc2)N1 (stereo not drawn) [Formula 65] | 80.3 w %
32 | COC(=O)C(Cc1ccccc1)NC1=C/C(=N/c2ccc(F)cc2)CC(C)(C)C1 (stereo not drawn) [Formula 67] | 68.1 w %
33 | COC(=O)C(Cc1ccccc1)NC1=C/C(=N/c2ccc(OC)cc2)CC(C)(C)C1 (stereo not drawn) [Formula 68] | 75.0 w %
34 | CCCCCCCCOc1ccc(/N=C2/C=C(NC(Cc3ccccc3)C(=O)OC)CC(C)(C)C2)cc1 (stereo not drawn) [Formula 69] | 82.5 w %
35 | C#Cc1ccc(NC2C=C(NCC(=O)OCC)CC(C)(C)C2)cc1 (stereo not drawn) [Formula 76] | 97.7 w % and 91.7 w %
36 | CCOC(=O)C1CSC2=C(CC(C)(C)CC2Nc2ccccc2)N1 (stereo not drawn) [Formula 77] | 66.4 w %

Same assay, conditions: by intersection points of tangents

Row | SMILES | T onset
37 | CCOC(=O)C1CSC2=C(CC(C)(C)C/C2=N\c2ccc(N3CCOCC3)cc2)N1 (stereo not drawn) [Formula 62] | 186.1 C
38 | C#Cc1ccc(/N=C2\CC(C)(C)CC3=C2SCC(C(=O)OCC)N3)cc1 (stereo not drawn) [Formula 63] | 197.4 C
39 | CCOC(=O)C1CSC2=C(CC(C)(C)C/C2=N\c2ccc(Nc3ccccc3)cc2)N1 (stereo not drawn) [Formula 64] | 187.0 C
40 | CCOC(=O)C1CSC2=C(CC(C)(C)C/C2=N\c2ccc(Cn3cncn3)cc2)N1 (stereo not drawn) [Formula 65] | 200.2 C
41 | COC(=O)C(Cc1ccccc1)NC1=C/C(=N/c2ccc(F)cc2)CC(C)(C)C1 (stereo not drawn) [Formula 67] | 190.5 C
42 | COC(=O)C(Cc1ccccc1)NC1=C/C(=N/c2ccc(OC)cc2)CC(C)(C)C1 (stereo not drawn) [Formula 68] | 197.2 C
43 | CCCCCCCCOc1ccc(/N=C2/C=C(NC(Cc3ccccc3)C(=O)OC)CC(C)(C)C2)cc1 (stereo not drawn) [Formula 69] | 193.6 C
44 | C#Cc1ccc(NC2C=C(NCC(=O)OCC)CC(C)(C)C2)cc1 (stereo not drawn) [Formula 76] | 256.0 C and 248.2 C
45 | CCOC(=O)C1CSC2=C(CC(C)(C)CC2Nc2ccccc2)N1 (stereo not drawn) [Formula 77] | 187.4 C

Test: SPF in vitro / UVA PF from UV transmittance through thin film on PMMA plates
Details: not given
Protocol: For determining the SPF in vitro value, the protection performance of compounds according to certain embodiments of the present technology, against erythemally-effective UV radiation, largely confined to the UVB (290-320 nm) and short-wavelength UVA (320-340) region, was calculated from the measured in vitro transmittance. The in vitro UVA PF, the UVA protection (320-400 nm), was calculated from the measured in vitro transmittance after irradiation. The Critical Wavelength Value was defined as the wavelength at which the integral of the spectral absorbance curve reached 90% of the integral over the UV spectrum from 290 to 400 nm. It has been settled that this value must be equal or over 370 nm so as to classify the product as broad-spectrum. The study consisted in a comparative assay of non-treated plates against plates treated with each of the compounds and was based on the evaluation of UV-transmittance through a thin film of sunscreen sample spread on a roughened substrate, before an after exposure to a controlled dose of UV radiation from a UV source. A Kontron 933 spectrophotometer equipped with a UV source, an integrating sphere and a monochromatic light able to deliver a flow of energy between 290 and 400 nm was used. The transmittance values were measured at 1 nm intervals. A 10-4 precision laboratory balance was used to control deposited product weight. The irradiation was provided by Sunset Atlas CPS+ with standard filter. Temperature regulation of the equipment was done in the range of 25-35° C. A pre-irradiation dose of 4 times 200 J/m^2-eff (800 J/m^2-eff) was delivered. The substrate was the material to which the sunscreen product was applied. Polymethylmethacrylate (PMMA) plates were used and were roughened on one side to a three-dimensional surface topography of 5 micrometers. Each compound was weighted and applied evenly to the PMMA plate with a 2-phase spreading to achieve a 0.75 mg/cm^2 weight/surface ratio. Spreading was performed with a light spreading move for approximately 30 seconds followed by spreading with greater pressure for approximately 30 seconds. The resulting sample was left to equilibrate for 15 minutes in the dark at room temperature to ensure a self-leveling of the formula. To account for lack of photostability, a pre-irradiation was necessary. The pre-irradiation dose was 4 minimal erythema dose (MEDs), equivalent to 800 J/m^2-eff. Five measurements of spectral irradiance transmitted for each wavelength through the PMMA plate covered with the sunscreen product were obtained after pre-irradiation of the sunscreen product [P1( ), P2( ), P3( ), P4( ) and P5( )]. For each compound, mean absorbance values were determined from at least three individual PMMA plates. To validate the accuracy of the results, a control product with an established SPF of 18-20, Lot 11T0313 was tested simultaneously with the compounds. SPF in vitro was calculated for each plate using the Colipa 2011 equation.

Row | SMILES | SPF Change % [%] | ΔSPF
46 | CCOC(=O)C1CSC2=C(CC(C)(C)C/C2=N\c2ccc(/N=N/c3ccccc3)cc2)N1 (stereo not drawn) [Formula 15] | 41 | 8
47 | CCOC(=O)C1CSC2=C(CC(C)(C)C/C2=N\c2ccc(-c3ccccc3)cc2)N1 (stereo not drawn) [Formula 19] | 35 | 7
48 | CCOC(=O)CNC1=C/C(=N/c2ccc(-c3ccccc3)cc2)CC(C)(C)C1 [Formula 31] | 63 | 13
49 | CCOC(=O)CNC1=C/C(=N/c2ccc(/N=N/c3ccccc3)cc2)CC(C)(C)C1 [Formula 33] | 81 | 16
50 | CCOC(=O)CNC1=C/C(=N/c2ccc(/N=N/c3ccc([N+](=O)[O-])cc3)cc2)CC(C)(C)C1 [Formula 35] | 7 | 2
51 | COC(=O)C1CSC2=C(CC(C)(C)C/C2=N\c2ccc(OC)cc2)N1 (stereo not drawn) [Formula 43] | 4 | 1
52 | CCOC(=O)CNC1=CC(Nc2ccc(OC)cc2)CC(C)(C)C1 (stereo not drawn) [Formula 72] | 18 | 4
53 | COc1ccc(NC2C=C(NCC(=O)O)CC(C)(C)C2)cc1 (stereo not drawn) [Formula 73] | 61 | 12

Same assay, conditions: 0.75 mg/cm^2

Row | SMILES | SPF in vitro mean | UV APF
54 | CCOC(=O)C1CSC2=C(CC(C)(C)C/C2=N\c2ccc(/N=N/c3ccccc3)cc2)N1 (stereo not drawn) [Formula 15] | 28.31 | 4.52
55 | CCOC(=O)C1CSC2=C(CC(C)(C)C/C2=N\c2ccc(-c3ccccc3)cc2)N1 (stereo not drawn) [Formula 19] | 27.12 | 4.07
56 | CCOC(=O)CNC1=C/C(=N/c2ccc(-c3ccccc3)cc2)CC(C)(C)C1 [Formula 31] | 32.75 | 2.95
57 | CCOC(=O)CNC1=C/C(=N/c2ccc(/N=N/c3ccccc3)cc2)CC(C)(C)C1 [Formula 33] | 36.23 | 4.26
58 | CCOC(=O)CNC1=C/C(=N/c2ccc(/N=N/c3ccc([N+](=O)[O-])cc3)cc2)CC(C)(C)C1 [Formula 35] | 21.53 | 17.35
59 | COC(=O)C1CSC2=C(CC(C)(C)C/C2=N\c2ccc(OC)cc2)N1 (stereo not drawn) [Formula 43] | 20.84 | 4.02
60 | CCOC(=O)CNC1=CC(Nc2ccc(OC)cc2)CC(C)(C)C1 (stereo not drawn) [Formula 72] | 23.61 | 2.85
61 | COc1ccc(NC2C=C(NCC(=O)O)CC(C)(C)C2)cc1 (stereo not drawn) [Formula 73] | 32.31 | 16.05

Same assay, conditions: P (after irradiation, 800 J/m^2-eff)

Row | SMILES | SPF P | UV APF P
62 | CCOC(=O)C1CSC2=C(CC(C)(C)C/C2=N\c2ccc(/N=N/c3ccccc3)cc2)N1 (stereo not drawn) [Formula 15] | 27.34 | 4.49
63 | CCOC(=O)C1CSC2=C(CC(C)(C)C/C2=N\c2ccc(-c3ccccc3)cc2)N1 (stereo not drawn) [Formula 19] | 24.31 | 3.92
64 | CCOC(=O)CNC1=C/C(=N/c2ccc(-c3ccccc3)cc2)CC(C)(C)C1 [Formula 31] | 30.52 | 2.88
65 | CCOC(=O)CNC1=C/C(=N/c2ccc(/N=N/c3ccccc3)cc2)CC(C)(C)C1 [Formula 33] | 33.16 | 4.36
66 | CCOC(=O)CNC1=C/C(=N/c2ccc(/N=N/c3ccc([N+](=O)[O-])cc3)cc2)CC(C)(C)C1 [Formula 35] | 17.94 | 14.64
67 | COC(=O)C1CSC2=C(CC(C)(C)C/C2=N\c2ccc(OC)cc2)N1 (stereo not drawn) [Formula 43] | 18.59 | 3.94
68 | CCOC(=O)CNC1=CC(Nc2ccc(OC)cc2)CC(C)(C)C1 (stereo not drawn) [Formula 72] | 21.12 | 2.74
69 | COc1ccc(NC2C=C(NCC(=O)O)CC(C)(C)C2)cc1 (stereo not drawn) [Formula 73] | 27.60 | 13.08

From patent publication US20240254096A1, “ULTRAVIOLET AND VISIBLE RADIATION ABSORBING COMPOUNDS” (ELKIMIA INC., priority 2021, published 2024)
